Data: patent US20230096028A1, “BICYCLIC HETEROCYCLYL COMPOUNDS AND USES THEREOF” (Revolution Medicines, Inc., priority 2019, published 2023)
Where two headings read alike, the source gives them in different places.

How the values were obtained:
[1] = tested on: PC-9 cells (EGFR Ex19Del); assay: Potency Assay: pERK (SOS1 pERK IC50 Assay, AlphaLISA SureFire Ultra p-ERK1/2); assay type: cell-based; conditions: Homo sapiens, read-out: SOS1 pERK IC50
Procedure, shortened: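 PC-9 (EGFR Ex19Del) cells plated overnight, then treated 1 h at 37° C. with 10-point 3-fold dilutions (top 10 μM final) in duplicate. Lysate pERK1/2 measured by AlphaLISA SureFire Ultra; IC50 from 4-parameter sigmoidal fit.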

[2] = target: T1, SOS1 catalytic domain (residues 564-1049) (Homo sapiens, UniProt Q07889); assay: Mode of Action Assay: inhibition of SOS1 nucleotide exchange activity (SOS1 TR-FRET IC50 Assay)
T1 sequence (Q07889 564-1049): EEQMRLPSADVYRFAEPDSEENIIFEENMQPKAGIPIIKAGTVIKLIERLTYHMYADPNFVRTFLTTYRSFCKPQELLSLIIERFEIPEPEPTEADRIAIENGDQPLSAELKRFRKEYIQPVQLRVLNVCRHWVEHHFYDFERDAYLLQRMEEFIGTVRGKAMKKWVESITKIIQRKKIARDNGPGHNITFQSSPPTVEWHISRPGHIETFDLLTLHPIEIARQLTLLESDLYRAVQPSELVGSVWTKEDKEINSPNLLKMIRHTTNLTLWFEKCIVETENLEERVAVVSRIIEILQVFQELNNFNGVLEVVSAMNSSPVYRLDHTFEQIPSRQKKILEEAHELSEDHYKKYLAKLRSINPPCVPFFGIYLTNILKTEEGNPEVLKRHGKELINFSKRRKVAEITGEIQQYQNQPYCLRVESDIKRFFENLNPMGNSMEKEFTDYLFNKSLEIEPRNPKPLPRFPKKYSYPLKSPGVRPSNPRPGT

[3] = target: T1, SOS1 catalytic domain (residues 564-1049); assay: Potency Assay: binding affinity to SOS1 using Surface Plasmon Resonance (SPR); design: SOS1 catalytic domain (residues 564-1049) immobilized on a sensor chip; conditions: immobilized SOS1 catalytic domain (residues 564-1049), read-out: SOS1 SPR Equilibrium Kd
Procedure, shortened: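 Avi-tagged SOS1 catalytic domain captured on streptavidin chip (~6000 RU) in 0.01 M HEPES, 0.15 M NaCl, 0.05% P20. Compound dilution series flowed at 50 μL/min for association, then buffer for dissociation, with double reference subtraction. Kd derived from end-of-association binding response plotted against concentration.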

[4] = PC-9 cells (EGFR Ex19Del), 1 hour incubation, AlphaLISA p-ERK1/2

Row | SMILES | IC50 [1, 4] [µM] | IC50 [2] [µM] | Kd [3] [µM] | IC50 ([1]; PC-9, 1 h) [µM]
1 | C[C@@H](Nc1nc(Cl)nc2c1CN(C(=O)N1CC3CNCC(C1)O3)C2)c1cccc(C(F)F)c1F [Example 398] | > 1 | < 1 | < 0.4 | 
2 | COc1cccc(C(=O)N2Cc3nc(Cl)nc(N[C@H](C)c4cc(N)cc(C(F)(F)F)c4)c3C2)c1OC [Example 107] | < 1 | < 1 | < 0.4 | 
3 | C[C@@H](Nc1ncnc2c1CN(C(=O)N1CCOCC1)C2)c1cccc(C(F)F)c1F [Example 389] | > 1 | < 1 | < 0.4 | 
4 | C[C@@H](Nc1nc(Cl)nc2c1CN(C(=O)c1ccccn1)C2)c1cc(N)cc(C(F)(F)F)c1 [Example 65] | < 1 | < 1 | > 0.4 | 
5 | C[C@@H](Nc1nc(Cl)nc2c1CN(C(=O)C1(C)COC1)C2)c1cc(N)cc(C(F)(F)F)c1 [Example 261] | < 1 | < 1 | < 0.4 | 
6 | Nc1cc(CNc2nc(Cl)nc3c2CN(C(=O)N2CCOCC2)C3)cc(C(F)(F)F)c1 [Example 135, N-{[3-amino-5-(trifluoromethyl)phenyl]methyl}-2-chloro-6-(morpholine-4-carbonyl)-5H,6H,7H-pyrrolo[3,4-d]pyrimidin-4-amine] | > 1 | > 1 | > 0.4 | 
7 | Cc1nc2c(c(N[C@H](C)c3cc(N)cc(C(F)(F)F)c3)n1)CN(S(=O)(=O)N1CCOCC1)C2 [Example 37, (R)—N-(1-(3-amino-5-(trifluoromethyl)phenyl)ethyl)-2-methyl-6-(morpholinosulfonyl)-6,7-dihydro-5H-pyrrolo[3,4-d]pyrimidin-4-amine] | < 1 | < 1 | < 0.4 | 
8 | C[C@@H](Nc1nc(Cl)nc2c1CN(C(=O)c1cccc(Cl)n1)C2)c1cc(N)cc(C(F)(F)F)c1 [Example 87] | < 1 | > 1 | > 0.4 | 
9 | C[C@@H](Nc1nc(Cl)nc2c1CN(C(=O)C1CCN1)C2)c1cccc(C(F)F)c1F (stereo partly drawn) [Example 286] | < 1 | < 1 | < 0.4 | 
10 | C[C@@H](Nc1nc(Cl)nc2c1CN(C(=O)N1CCOCC1)C2)c1cccc(C(F)(F)F)c1 [Example 137, 2-chloro-6-(morpholine-4-carbonyl)-N-[(1R)-1-[3-(trifluoromethyl)phenyl]ethyl]-5H,6H,7H-pyrrolo[3,4-d]pyrimidin-4-amine] | < 1 | < 1 | < 0.4 | 
11 | C[C@@H](Nc1nc(Cl)nc2c1CN(C(=O)N1CCOCC1)C2)c1cccc(C(F)(F)CN(C)C)c1 [Example 483, 2-chloro-N-[(1R)-1-{3-[2-(dimethylamino)-1,1-difluoroethyl]phenyl}ethyl]-6-(morpholine-4-carbonyl)-5H,6H,7H-pyrrolo[3,4-d]pyrimidin-4-amine] | > 1 | < 1 | < 0.4 | 
12 | CNCc1ccccc1-c1cnc(C(C)Nc2nc(Cl)nc3c2CN(C(=O)N2CCOCC2)C3)s1 (stereo not drawn) [Example 31] | > 1 | > 1 | < 0.4 | 
13 | C[C@@H](Nc1nc(Cl)nc2c1CN(C(=O)N1CCOCC1)C2)c1cccc(C(F)F)c1Cl [Example 522, 2-chloro-N-[(1R)-1-[2-chloro-3-(difluoromethyl)phenyl]ethyl]-6-(morpholine-4-carbonyl)-5H,6H,7H-pyrrolo[3,4-d]pyrimidin-4-amine] |  | < 1 | < 0.4 | < 1
14 | C[C@@H](Nc1nc(Cl)nc2c1CN(C(=O)c1ccncn1)C2)c1cc(N)cc(C(F)(F)F)c1 [Example 73] | < 1 | < 1 | < 0.4 | 
15 | C[C@@H](Nc1nc(Cl)nc2c1CN(C(=O)N1CCOCC1)C2)c1cccc2c1COCC2(F)F [Example 523, 2-chloro-N-[(1R)-1-(4,4-difluoro-3,4-dihydro-1H-2-benzopyran-8-yl)ethyl]-6-(morpholine-4-carbonyl)-5H,6H,7H-pyrrolo[3,4-d]pyrimidin-4-amine] |  | < 1 | < 0.4 | < 1
16 | C[C@@H](Nc1nc(Cl)nc2c1CN(C(=O)c1cccc3c1OCCN3)C2)c1cc(N)cc(C(F)(F)F)c1 [Example 77] | < 1 | < 1 | > 0.4 | 
17 | CCc1nc2c(c(N[C@H](C)c3cc(N)cc(C(F)(F)F)c3)n1)CN(C(=O)N1CCOCC1)C2 [Example 128, N-[(1R)-1-[3-amino-5-(trifluoromethyl)phenyl]ethyl]-2-ethyl-6-(morpholine-4-carbonyl)-5H,6H,7H-pyrrolo[3,4-d]pyrimidin-4-amine] | < 1 | < 1 | < 0.4 | 
18 | Cc1nc2c(c(N[C@H](C)c3cc(N)cc(C(F)(F)F)c3)n1)CN(S(=O)(=O)c1ccc(N)nc1)C2 [Example 36, (R)—N-(1-(3-amino-5-(trifluoromethyl)phenyl)ethyl)-6-((6-aminopyridin-3-yl)sulfonyl)-2-methyl-6,7-dihydro-5H-pyrrolo[3,4-d]pyrimidin-4-amine] | > 1 | > 1 | > 0.4 | 
19 | C[C@@H](Nc1nc(Cl)nc2c1CN(S(=O)(=O)c1c[nH]cn1)CC2)c1cc(N)cc(C(F)(F)F)c1 [Example 458] | < 1 | < 1 | < 0.4 | 
20 | COC(C(=O)N1Cc2nc(Cl)nc(N[C@H](C)c3cc(N)cc(C(F)(F)F)c3)c2C1)C1CCOC1 (stereo partly drawn) [Example 259] | < 1 | < 1 | < 0.4 | 
21 | C[C@@H](Nc1nc(CO)nc2c1CN(C(=O)N1CCOCC1)C2)c1cc(N)cc(C(F)(F)F)c1 [Example 129, (4-{[(1R)-1-[3-amino-5-(trifluoromethyl)-phenyl]ethyl]amino}-6-(morpholine-4-carbonyl)-5H,6H,7H-pyrrolo[3,4-d]pyrimidin-2-yl)methanol] | < 1 | < 1 | < 0.4 | 
22 | C[C@@H](Nc1nc(Cl)nc2c1CN(C(=O)[C@@H]1C[C@@H]1C#N)CC2)c1cc(N)cc(C(F)(F)F)c1 [Example 205] | < 1 | > 1 | < 0.4 | 
23 | C[C@@H](Nc1nc(Cl)nc2c1CN(C(=O)c1ccnnc1)CC2)c1cc(N)cc(C(F)(F)F)c1 [Example 228] | > 1 | < 1 | < 0.4 | 
24 | C[C@@H](Nc1nc(Cl)nc2c1CN(S(=O)(=O)N1CCOCC1)CC2)c1cc(N)cc(C(F)(F)F)c1 [Example 29, N-[(1R)-1-[3-amino-5-(trifluoromethyl)phenyl]ethyl]-2-chloro-6-morpholinosulfonyl-7,8-dihydro-5H-pyrido[4,3-d]pyrimidin-4-amine] | < 1 | < 1 | < 0.4 | 
25 | C[C@@H](Nc1nc(Cl)nc2c1CN(C(=O)C1CN(C)CCO1)C2)c1cccc(C(F)F)c1F (stereo partly drawn) [Example 298] | > 1 | < 1 | < 0.4 | 
26 | C[C@@H]1OCC2(CCN(C(=O)N3Cc4nc(Cl)nc(N[C@H](C)c5cccc(C(F)F)c5F)c4C3)CC2)[C@@H]1N [Example 424] | > 1 | < 1 | < 0.4 | 
27 | C[C@@H](Nc1nc(Cl)nc2c1CN(C(=O)[C@@H]1CNCCO1)C2)c1cccc(C(F)(F)F)c1 [Example 278] | < 1 | < 1 | < 0.4 | 
28 | C[C@@H](Nc1nc(Cl)nc2c1CN(C(=O)C1(C)CN(C)C1)C2)c1cc(N)cc(C(F)(F)F)c1 [Example 265] | < 1 | < 1 | < 0.4 | 
